Legend:
Aurora-B = Aurora-B (Homo sapiens, UniProt Q96GD4); assay: Aurora-B enzyme assay (identical protocol as Aurora-A); format: biochemical; conditions: IC50 range class; read-out: Inhibitor Activity vs Aurora-B
Procedure: The ability of compounds to inhibit Aurora-A activity was measured using a simple microplate assay for Aurora-A activity, also suitable for high-throughput screening. In brief, γ-^33P-ATP and Aurora-A were incubated in a myelin basic protein (MBP)-coated Flashplate® to generate a scintillation signal. The plates were formatted to contain the inhibitor, controls, positive control (staurosporin) and blanks. After incubation at 37° C. for 1 hour and a subsequent wash procedure, the plates were read on a TopCount-NXT™.
IC50 values were determined by non-linear regression analysis, after fitting the data point results to the equation for sigmoidal dose response with variable slope (% activity against log concentration of compound), using Graphpad Prism software.
The Aurora-B enzyme assay follows the identical protocol as Aurora-A.

U937 cell line = assay: Cell inhibition assay (SRB cell viability), U937; format: cell-based; conditions: Homo sapiens, U-937, IC50 range class, 72 h, read-out: Inhibitor Activity vs U937 cell line
Procedure: (§1) The corresponding cancer cell lines (U937, HCT 116 and HUT) growing in log phase were harvested and seeded at 1000 cells/well (200 ul final volume) into 96-well tissue culture plates. Following 24 h of cell growth cells were treated with compounds (final concentration of 20 uM). Plates were then re-incubated for a further 72 h before a sulphorhodamine B (SRB) cell viability assay was conducted according to Skehan 1990 J Natl Canc Inst 82, 1107-1112.
(§2) Data were expressed as a percentage inhibition of the control, measured in the absence of inhibitor, as follows: — % inhibition=100−((S^i/S^o)×100) where S^i is the signal in the presence of inhibitor and S^o is the signal in the presence of DMSO.
(§3) IC50 values were determined by non-linear regression analysis, after fitting the results of eight data points to the equation for sigmoidal dose response with variable slope (% activity against log concentration of compound), using Graphpad Prism software.

HCT 116 cell line = assay: Cell inhibition assay (SRB cell viability), HCT 116; format: cell-based; conditions: Homo sapiens, IC50 range class, 72 h, read-out: Inhibitor Activity vs HCT 116 cell line
Procedure: as §1, §2, §3

HUT cell line = assay: Cell inhibition assay (SRB cell viability), HUT; format: cell-based; conditions: IC50 range class, 72 h, read-out: Inhibitor Activity vs HUT cell line
Procedure: as §1, §2, §3

Chain of Aurora-B (Q96GD4 whole entry): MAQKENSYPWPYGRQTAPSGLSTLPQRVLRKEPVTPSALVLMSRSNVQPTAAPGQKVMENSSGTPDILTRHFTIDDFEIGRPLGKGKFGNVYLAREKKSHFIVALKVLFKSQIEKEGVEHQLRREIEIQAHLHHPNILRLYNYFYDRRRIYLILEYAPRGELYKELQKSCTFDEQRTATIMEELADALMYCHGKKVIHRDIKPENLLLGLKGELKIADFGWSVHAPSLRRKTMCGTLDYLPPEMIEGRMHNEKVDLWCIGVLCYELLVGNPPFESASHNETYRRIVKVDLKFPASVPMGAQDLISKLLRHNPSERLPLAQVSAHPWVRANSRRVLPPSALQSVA

Row | Compound | IC50 (Aurora-B) | IC50 (U937 cell line) | IC50 (HCT 116 cell line) | IC50 (HUT cell line)
1 | COc1cc2c(Oc3ccc(NC(=O)C4CC4)cc3)ccnc2cc1OCC[C@H](N)C(=O)OC1CCCC1 [Example 59, (S)-2-Amino-4-{4-[4-(cyclopropanecarbonyl-amino)-phenoxy]-6-methoxy-quinolin-7-yloxy}-butyric acid cyclopentyl ester] | > 5 µM | < 1 µM | 1 to 5 µM | 1 to 5 µM
2 | COc1cc2nccc(Oc3ccc(NC(=O)c4ccccc4)cc3)c2cc1OCC[C@H](N)C(=O)OC1CCCC1 [Example 35, (S)-2-Amino-4-[4-(4-benzoylamino-phenoxy)-7-methoxy-quinolin-6-yloxy]-butyric acid cyclopentyl ester] | > 5 µM | < 1 µM | 1 to 5 µM | 1 to 5 µM
3 | COc1cc2c(Oc3ccc(NC(=O)c4cccc(F)c4)cc3)ccnc2cc1OCC[C@H](N)C(=O)O [Example 56, (S)-2-Amino-4-{4-[4-(3-fluoro-benzoylamino)-phenoxy]-6-methoxy-quinolin-7-yloxy}-butyric acid] | < 2 µM | – | – | –
4 | COc1cc2c(Oc3ccc(NC(=O)c4ccc(OC(F)(F)F)cc4)cc3)ccnc2cc1OCC[C@H](N)C(=O)O [Example 71, (S)-2-Amino-4-{6-methoxy-4-[4-(4-trifluoromethoxy-benzoylamino)-phenoxy]-quinolin-7-yloxy}-butyric acid] | 2 to 5 µM | – | – | –
5 | COc1cc2c(Oc3ccc(NC(=O)c4ccccc4)cc3)ccnc2cc1OCC[C@H](NC(C)=O)C(=O)OC1CCCC1 [Example 42, (S)-2-Acetylamino-4-[4-(4-benzoylamino-phenoxy)-6-methoxy-quinolin-7-yloxy]-butyric acid cyclopentyl ester] | 2 to 5 µM | < 1 µM | < 1 µM | < 1 µM
6 | COc1cc2c(Nc3cnn(CC(=O)Nc4ccccc4)c3)ccnc2cc1OCC[C@H](N)C(=O)O [Example 23, (S)-2-Amino-4-[6-methoxy-4-(1-phenylcarbamoylmethyl-1H-pyrazol-4-ylamino)-quinolin-7-yloxy]-butyric acid] | > 5 µM | – | – | –
7 | COc1cc2c(Oc3ccc(NS(=O)(=O)c4ccccc4)cc3)ccnc2cc1OCC[C@H](N)C(=O)O [Example 74, (S)-2-Amino-4-[4-(4-benzenesulfonylamino-phenoxy)-6-methoxy-quinolin-7-yloxy]-butyric acid] | 2 to 5 µM | – | – | –
8 | COc1cc2c(Nc3cnc(NC(=O)c4ccccc4)nc3)ncnc2cc1OCC[C@H](N)C(=O)OC1CCCC1 [Example 31, (S)-2-Amino-4-[4-(2-benzoylamino-pyrimidin-5-ylamino)-6-methoxy-quinazolin-7-yloxy]-butyric acid cyclopentyl ester] | – | > 5 µM | > 5 µM | > 5 µM
9 | COc1cc2c(Oc3ccc(NC(=O)c4ccccc4)cc3)ccnc2cc1OCC[C@H](N)C(=O)OC1CCCC1C (stereo partly drawn) [Example 49, (S)-2-Amino-4-[4-(4-benzoylamino-phenoxy)-6-methoxy-quinolin-7-yloxy]-butyric acid 2-methyl-cyclopentyl ester] | – | < 1 µM | < 1 µM | < 1 µM
10 | COc1cc2c(Oc3ccc(NC(=O)c4ccc(OC(F)(F)F)cc4)cc3)ccnc2cc1OCC[C@H](N)C(=O)OC1CCCC1 [Example 70, (S)-2-Amino-4-{6-methoxy-4-[4-(4-trifluoromethoxy-benzoylamino)-phenoxy]-quinolin-7-yloxy}-butyric acid cyclopentyl ester] | – | < 1 µM | < 1 µM | < 1 µM
11 | COc1cc2c(Oc3ccc(NC(=O)c4ccc(F)cc4F)cc3)ccnc2cc1OCC[C@H](N)C(=O)OC1CCCC1 [Example 65, (S)-2-Amino-4-{4-[4-(2,4-difluoro-benzoylamino)-phenoxy]-6-methoxy-quinolin-7-yloxy}-butyric acid cyclopentyl ester] | – | < 1 µM | < 1 µM | < 1 µM
12 | COc1cc2c(Oc3ccc(NC(=O)c4ccccc4)cc3)ccnc2cc1OCC[C@H](NCC(C)C)C(=O)OC1CCCC1 [Example 37, (S)-4-[4-(4-Benzoylamino-phenoxy)-6-methoxy-quinolin-7-yloxy]-2-isobutylamino-butyric acid cyclopentyl ester] | – | < 1 µM | 1 to 5 µM | 1 to 5 µM
13 | COc1cc2c(Oc3ccc(-c4noc(-c5ccccc5)n4)cc3)ccnc2cc1OCC[C@@H](N)C(=O)OC1CCCC1 [Example 107, (R)-2-Amino-4-{6-methoxy-4-[4-(5-phenyl-[1,2,4]oxadiazol-3-yl)-phenoxy]-quinolin-7-yloxy}-butyric acid cyclopentyl ester] | – | > 5 µM | > 5 µM | > 5 µM
14 | COc1cc2c(Oc3ccc(NC(=O)c4ccccc4)cc3)ccnc2cc1OCC[C@H](NC1CCCCC1)C(=O)OC1CCCC1 [Example 39, (S)-4-[4-(4-Benzoylamino-phenoxy)-6-methoxy-quinolin-7-yloxy]-2-cyclohexylamino-butyric acid cyclopentyl ester] | – | 1 to 5 µM | > 5 µM | > 5 µM
15 | COc1cc2c(Oc3ccc(NC(=O)Nc4ccc5c(c4)CCC5)cc3)ccnc2cc1OCC[C@H](N)C(=O)OC1CCCC1 [Example 97, (S)-2-Amino-4-{4-[4-(3-indan-5-yl-ureido)-phenoxy]-6-methoxy-quinolin-7-yloxy}-butyric acid cyclopentyl ester] | – | < 1 µM | < 1 µM | < 1 µM
16 | COc1cc2c(Oc3ccc(CNC(=O)c4ccccc4)cc3)ccnc2cc1OCC[C@H](N)C(=O)OC1CCCC1 [Example 141, (S)-2-Amino-4-{4-[4-(benzoylamino-methyl)-phenoxy]-6-methoxy-quinolin-7-yloxy}-butyric acid cyclopentyl ester] | – | < 1 µM | < 1 µM | < 1 µM
17 | COc1cccc(CC(=O)N[C@@H](CCOc2cc3nccc(Oc4ccc(NC(=O)c5ccccc5)cc4)c3cc2OC)C(=O)OC2CCCC2)c1 [Example 45, (S)-4-[4-(4-Benzoylamino-phenoxy)-6-methoxy-quinolin-7-yloxy]-2-[2-(3-methoxy-phenyl)-acetylamino]-butyric acid cyclopentyl ester] | – | < 1 µM | 1 to 5 µM | < 1 µM
18 | COc1cc2c(Oc3ccc(NC(=O)c4ccccc4)cc3)ccnc2cc1OCC[C@H](N)C(=O)OC12CCC(CC1)C2 [Example 47, (S)-2-Amino-4-[4-(4-benzoylamino-phenoxy)-6-methoxy-quinolin-7-yloxy]-butyric acid bicyclo[2.2.1]hept-1-yl ester] | – | < 1 µM | < 1 µM | < 1 µM
19 | COc1cc2c(Oc3ccc4sc(C)nc4c3)ccnc2cc1OCC[C@H](N)C(=O)OC1CCCC1 [Example 12, (S)-2-Amino-4-[6-methoxy-4-(2-methyl-benzothiazol-5-yloxy)-quinolin-7-yloxy]-butyric acid cyclopentyl ester] | – | 1 to 5 µM | > 5 µM | > 5 µM
20 | COc1cc2c(Oc3ccc(-c4ccccc4)cc3)ccnc2cc1OCC[C@H](N)C(=O)OC1CCCC1 [Example 11, (S)-2-Amino-4-[4-(biphenyl-4-yloxy)-6-methoxy-quinolin-7-yloxy]-butyric acid cyclopentyl ester] | – | 1 to 5 µM | 1 to 5 µM | 1 to 5 µM
21 | COc1cc2c(Oc3ccc(NC(=O)c4ccc(Cl)cc4)cc3)ccnc2cc1OCC[C@H](N)C(=O)OC1CCCC1 [Example 66, (S)-2-Amino-4-{4-[4-(4-chloro-benzoylamino)-phenoxy]-6-methoxy-quinolin-7-yloxy}-butyric acid cyclopentyl ester] | – | < 1 µM | < 1 µM | < 1 µM
22 | COc1cc2c(Oc3ccc(NC(=O)c4cc(C(F)(F)F)ccc4F)cc3)ccnc2cc1OCC[C@H](N)C(=O)OC1CCCC1 [Example 68, (S)-2-Amino-4-{4-[4-(2-fluoro-5-trifluoromethyl-benzoylamino)-phenoxy]-6-methoxy-quinolin-7-yloxy}-butyric acid cyclopentyl ester] | – | < 1 µM | < 1 µM | < 1 µM
23 | COc1cc2c(Oc3ccc(NC(=O)c4ccccc4)cc3)ccnc2cc1OCC[C@H](N)C(=O)OC1CCC(C)C1 (stereo partly drawn) [Example 46, (S)-2-Amino-4-[4-(4-benzoylamino-phenoxy)-6-methoxy-quinolin-7-yloxy]-butyric acid 3-methyl-cyclopentyl ester] | – | < 1 µM | < 1 µM | < 1 µM
24 | COc1cc2c(Oc3ccc(NC(=O)Nc4ccc(C(F)(F)F)cc4)cc3)ccnc2cc1OCCC[C@H](N)C(=O)OC1CCCC1 [Example 113, (S)-2-Amino-5-(6-methoxy-4-{4-[3-(4-trifluoromethyl-phenyl)-ureido]-phenoxy}-quinolin-7-yloxy)-pentanoic acid cyclopentyl ester] | – | < 1 µM | < 1 µM | < 1 µM

Reference: patent publication US8148531B2 (Chroma Therapeutics Ltd., priority 2005, dated 2012)
